Data taken from ChEMBL document CHEMBL6115010, “Targeting glioma with heteroaromatic alkaloids: A review of potential therapeutics” (Bioorg Med Chem, 2025).
Converted amounts (≈) assume the structure as drawn.

Key:
U-251 [1] = assay: Antiproliferative activity against human U-251MG cells assessed as reduction in cell viability incubated for 72 hrs by SRB assay; format: functional, cell-based; settings: U-251, 72 h
H4 = assay: Antiproliferative activity against human H4 cells assessed as reduction in cell viability incubated for 72 hrs by Presto-Blue cell viability assay; format: functional, cell-based; settings: H4, 72 h
U-87 MG [2] = assay: Antitumor activity against human U-87 MG cells xenografted in mouse model assessed as reduction in tumor growth at 15 mg/kg, ip administered once daily for 5 days relative to control; format: functional, U-87MG ATCC; parameters: scale not given: the % may be the effect or the level left; settings: time 5 day
U-87 MG [3] = assay: Antiproliferative activity against human U-87 MG cells assessed as reduction in cell viability incubated for 72 hrs by Presto-Blue cell viability assay; format: functional, cell-based, U-87MG ATCC
U-251 [4] = assay: Induction of apoptosis in human U-251MG cells assessed as increase in PARP cleavage at 12.5 to 100 uM incubated for 24 hrs by Western blot analysis; format: functional; settings: dose 12.5-100 µM
[5] = Cytotoxicity against human CHG-5 cells assessed as reduction in cell growth incubated for 24 hrs by MTT assay; format: functional, cell-based; settings: CHG-5, 24 h
CCF-STTG1 = assay: Cytotoxicity against human CCF-STTG1 cells assessed as reduction in cell growth incubated for 24 hrs by MTT assay; format: functional, cell-based; settings: CCF-STTG1, 24 h
[6] = Cytotoxicity against human SHG-44 cells assessed as reduction in cell growth incubated for 24 hrs by MTT assay; format: functional, cell-based; settings: SHG-44, 24 h
U-251 [7] = assay: Cytotoxicity against human U-251MG cells assessed as reduction in cell growth incubated for 24 hrs by MTT assay; format: functional, cell-based; settings: U-251, 24 h
U-118-MG [8] = assay: Antiproliferative activity against human U-118-MG cells assessed as inhibition of cell proliferation incubated for 72 hrs by CCK8 assay; format: functional, cell-based
U-87 MG [9] = assay: Antiproliferative activity against human U-87 MG cells assessed as reduction in cell growth measured for 24 hrs by MTT assay; format: functional, cell-based, U-87MG ATCC
SF-268 = assay: Cytotoxicity against human SF-268 cells assessed as reduction in cell viability incubated for 72 hrs by MTT assay; format: functional, cell-based; settings: SF-268, 72 h
U-251 [10] = assay: Cytotoxicity against human U-251MG cells assessed as reduction in cell growth; format: functional, cell-based
U-87 MG [11] = assay: Cytotoxicity against human U-87 MG cells by resazurin dye based assay; format: functional, cell-based, U-87MG ATCC
[12] = Cytotoxicity against human U87MG.deltaEGFR cells by resazurin dye based assay; format: functional, cell-based
U-87 MG [13] = assay: Cytotoxicity against human U-87 MG cells assessed as reduction in cell growth incubated for 48 hrs by MTT assay; format: functional, cell-based, U-87MG ATCC
C6 [14] = assay: Antiproliferative activity against rat C6 cells assessed as reduction in cell growth incubated for 48 hrs by MTT assay; format: functional, cell-based; settings: C6, 48 h
C6 [15] = assay: Antiproliferative activity against rat C6 cells assessed as reduction in cell growth incubated for 72 hrs by MTT assay; format: functional, cell-based; settings: C6, 72 h
U-251 [16] = assay: Antiproliferative activity against human U-251MG cells assessed as reduction in cell growth incubated for 48 hrs by MTT assay; format: functional, cell-based; settings: U-251, 48 h
C6 [17] = assay: Antiproliferative activity against rat C6 cells assessed as reduction in cell growth incubated for 24 hrs by MTT assay; format: functional
U-251 [18] = assay: Antiproliferative activity against human U-251MG cells assessed as reduction in cell growth incubated for 24 hrs by MTT assay; format: functional, cell-based; settings: U-251, 24 h
U-251 [19] = assay: Antiproliferative activity against human U-251MG cells assessed as reduction in cell growth incubated for 72 hrs by MTT assay; format: functional, cell-based; settings: U-251, 72 h
[20] = Cytotoxicity against human GSC-3 cells assessed as reduction in cell growth incubated for 72 hrs by MTS assay; format: functional, cell-based; settings: GSC-3, 72 h
[21] = Cytotoxicity against human GSC-18 cells assessed as reduction in cell growth incubated for 72 hrs by MTS assay; format: functional, cell-based; settings: GSC18, 72 h
[22] = Cytotoxicity against rat ASK cells assessed as reduction in cell growth by SRB assay; format: functional; settings: read-out: ED50 (the source's name)
C6 [23] = assay: Antiproliferative activity against rat C6 cells assessed as reduction in cell growth at 10 uM incubated for 24 hrs by MTT assay relative to control; format: functional; parameters: scale not given: the % may be the effect or the level left
LN-229 = assay: Antiproliferative activity against human LN-229 cells assessed as reduction in cell viability by MTT assay; format: functional, cell-based
T98G [24] = assay: Antiproliferative activity against human T98G cells assessed as reduction in cell viability measured for 24 hrs by MTT assay; format: functional, cell-based
T98G [25] = assay: Antiproliferative activity against human T98G cells assessed as reduction in cell viability by MTT assay; format: functional, cell-based
U-118-MG [26] = assay: Antiproliferative activity against human U-118-MG cells assessed as reduction in cell viability incubated for 72 hrs by MTT assay; format: functional, cell-based
U-87 MG [27] = assay: Antiproliferative activity against human U-87 MG cells assessed as reduction in cell viability incubated for 72 hrs by MTT assay; format: functional, cell-based, U-87MG ATCC
[28] = Antiproliferative activity against human SHG-44 cells assessed as reduction in cell viability by MTT assay; format: functional, cell-based
U-251 [29] = assay: Antiproliferative activity against human U-251MG cells assessed as reduction in cell viability incubated for 72 hrs by MTT assay; format: functional, cell-based; settings: U-251, 72 h
LN-18 = assay: Antiproliferative activity against human LN-18 cells assessed as inhibition of cell growth incubated for 72 hrs MTS assay; format: functional, cell-based; settings: LN-18, 72 h
C6 [30] = assay: Antiproliferative activity against rat C6 cells assessed as reduction in cell viability by MTT assay; format: functional, cell-based
T98G [31] = assay: Cytotoxicity activity against human T98G cells assessed as reduction in cell growth measured for 48 hrs by MTS reagent based assay; format: functional
U-87 MG [32] = assay: Cytotoxicity against human U-87 MG cells assessed as reduction in cell viability incubated for 72 hrs by neutral red uptake assay; format: functional, cell-based, U-87MG ATCC
U-87 MG [33] = assay: Cytotoxicity against human U-87 MG cells assessed as reduction in cell viability in presence of Jerantinine B incubated for 72 hrs by neutral red uptake assay; format: functional, cell-based, U-87MG ATCC

`CC1=N[C@H](C(=O)O)CC2c3[nH]ccc3NC12` (some centres not stated) gave an IC50 (U-251 [1]) of 36.3 µM.

Compound `COc1ccc2c(c1)[nH]c1c(C)nccc12` [HARMINE] has an IC50 (H4) of 4.9 µM, an Activity (U-87 MG [2]) of 16.5% and an IC50 (U-87 MG [3]) of 45.3 µM. It also gave an Activity (U-251 [4]) of 346%.

`COC(=O)N1CCc2cc3c(c4c2[C@@H]1Cc1ccc(OC)c(OC)c1-4)OCO3` showed an IC50 [5] of 9.7 µM, an IC50 (CCF-STTG1) of 9.2 µM and an IC50 [6] of 11.3 µM. It also gave an IC50 (U-251 [7]) of 11.3 µM.

With `COc1ccc2cc1Oc1ccc(cc1)C[C@H]1c3cc(c(OC)cc3CCN1C)Oc1c(O)c(OC)cc3c1[C@H](C2)N(C)CC3` [FANGCHINOLINE] the IC50 (U-118-MG [8]) was 44.2 µM and the IC50 (U-87 MG [9]) was 39.3 µM.

For `CC1=NC(C(=O)O)Cc2c1[nH]c1cc([C@H](c3c[nH]c4ccccc34)[C@@H](O)CO)[nH]c21` (some centres not stated), the IC50 (U-251 [1]) was 26.1 µM.

With `CC[C@H](/C=C(C)/C=C/C(=O)c1c(O)c(-c2ccc(O)cc2)c[nH]c1=O)CO` the IC50 (SF-268) was 31.1 µM.

Work on `COc1cccc2c1C(=O)c1c(O)c3c(c(O)c1C2=O)C[C@@](O)(C(=O)CO)C[C@@H]3O[C@H]1C[C@H](N)[C@H](O)[C@H](C)O1` [DOXORUBICIN] yielded an IC50 (U-251 [10]) of 0.237 µM, an IC50 (SF-268) of 0.7 µM and an IC50 (U-87 MG [11]) of 1.06 µM. The IC50 [12] was 6.11 µM.

Work on `Oc1cc2cccc(O)c2cn1` yielded an IC50 (U-87 MG [13]) of 3.46 µM.

`COc1ccc2c(c1OC)CN(C)c1c-2ccc2cc3c(cc12)OCO3` [DIHYDROCHELERYTHRINE] gave an EC50 (C6 [14]) of 99.8 µM, an EC50 (C6 [15]) of 93.3 µM and an EC50 (U-251 [16]) of 94.2 µM. It also gave an EC50 (C6 [17]) of 121.4 µM, an EC50 (U-251 [18]) of 112 µM and an EC50 (U-251 [19]) of 91.2 µM.

With `COc1cc2c(cc1Oc1c(C=O)ccc(OC)c1OC)cc1c3c(c(OC)c(OC)c(OC)c32)CCN1C` the IC50 [20] was 4.54 µg/mL (≈ 8.51 µM), the IC50 [21] was 5.37 µg/mL (≈ 10.1 µM) and the EC50 [22] was 2.11 µg/mL (≈ 3.95 µM).

Work on `COc1ccc2cc3[n+](cc2c1OC)CCc1cc2c(cc1-3)OCO2` [BERBERINE] yielded an Activity (C6 [23]) of 88%, an IC50 (LN-229) of 0.0813 µg/mL and an IC50 (T98G [24]) of 134 µg/mL. It also gave an IC50 (T98G [25]) of 120 µM, an IC50 (U-118-MG [26]) of 35.5 µM and an IC50 (U-87 MG [27]) of 21.8 µM. For the same compound, the IC50 [28] was 0.2748 µg/mL, the IC50 (U-251 [29]) was 9.79 µM and the IC50 (LN-18) was 89.7 µM. It also gave an IC50 (C6 [30]) of 50.9 µM.

Work on `C=CC(C)(C)[C@@]12C[C@H]3C(=O)N[C@@H](Cc4ccccc4)C(=O)N3[C@@H]1N(C(C)=O)c1ccccc12` yielded an IC50 (T98G [31]) of 20 µg/mL (≈ 45.1 µM).

For `COc1ncc(O)c2c(O)cccc12`, the IC50 (U-87 MG [13]) was 2.14 µM.

`CC(C)=CCC/C(C)=C/CC/C(C)=C/CC[C@]1(C)CCc2cc(O)cc(C)c2O1` [DELTA-TOCOTRIENOL] gave an IC50 (U-87 MG [32]) of 3.12 µg/mL (≈ 7.87 µM) and an IC50 (U-87 MG [33]) of 1.83 µg/mL.

For `C=CC(C)(C)n1cc(Cc2cn(C(C)(C)C=C)c3ccccc23)c2ccccc21`, the IC50 (T98G [31]) was 18 µg/mL (≈ 47.1 µM).
